Our source for the surface tension liquid-gas, mass density and viscosity values is the NIST ThermoML archive (doi:10.1016/j.fluid.2008.08.015).

± gives the expanded uncertainty stated by the source.

The conditions of this data set: 295 K; for surface tension liquid-gas: Maximal bubble pressure; for mass density / viscosity: 101.33 kPa, Liquid; for mass density: Buoyancy - hydrostatic balance with magnetic suspension - one sinker; for viscosity: Concentric cylinders viscometry.

In general, surface tension liquid-gas refers to the work needed to enlarge the surface of a liquid by unit area. As usually defined, the mass density is mass per unit of volume. Usually viscosity stands for the internal friction of a fluid under shear. With `OCCO` [1,2-ethanediol], the surface tension liquid-gas stood at 47.95 ± 2.4 mN/m, the mass density came to 1120.7 ± 22 kg/m3 and the viscosity was determined as 21.26 ± 3.1 mPa·s.
On the same counts, the results for `OCC(O)CO` [glycerol] are 62.87 ± 1.4 mN/m, 1267.4 ± 25 kg/m3 and 1499.5 ± 190 mPa·s.
